Where two headings read alike, the source gives them in different places.
Legend:
Format in all cases: binding
[1] = target: broad panel of kinases (Homo sapiens, UniProt O14965); conditions: AURKA; 1 μM
[2] = target: broad panel of kinases (Homo sapiens, UniProt O94921); conditions: PFTK1; 1 μM
[3] = target: broad panel of kinases (Homo sapiens, UniProt P00519, F317L); conditions: 1 μM
[4] = target: broad panel of kinases (Homo sapiens, UniProt P08581, M1250T); conditions: MET(M1250T); 1 μM
[5] = target: broad panel of kinases (Homo sapiens, UniProt P08922); conditions: ROS1; 1 μM
[6] = target: broad panel of kinases (Homo sapiens, UniProt P09619); conditions: PDGFRB; 1 μM
Sequence of broad panel of kinases (Homo sapiens, UniProt P09619) (P09619 33-1106 limits assumed): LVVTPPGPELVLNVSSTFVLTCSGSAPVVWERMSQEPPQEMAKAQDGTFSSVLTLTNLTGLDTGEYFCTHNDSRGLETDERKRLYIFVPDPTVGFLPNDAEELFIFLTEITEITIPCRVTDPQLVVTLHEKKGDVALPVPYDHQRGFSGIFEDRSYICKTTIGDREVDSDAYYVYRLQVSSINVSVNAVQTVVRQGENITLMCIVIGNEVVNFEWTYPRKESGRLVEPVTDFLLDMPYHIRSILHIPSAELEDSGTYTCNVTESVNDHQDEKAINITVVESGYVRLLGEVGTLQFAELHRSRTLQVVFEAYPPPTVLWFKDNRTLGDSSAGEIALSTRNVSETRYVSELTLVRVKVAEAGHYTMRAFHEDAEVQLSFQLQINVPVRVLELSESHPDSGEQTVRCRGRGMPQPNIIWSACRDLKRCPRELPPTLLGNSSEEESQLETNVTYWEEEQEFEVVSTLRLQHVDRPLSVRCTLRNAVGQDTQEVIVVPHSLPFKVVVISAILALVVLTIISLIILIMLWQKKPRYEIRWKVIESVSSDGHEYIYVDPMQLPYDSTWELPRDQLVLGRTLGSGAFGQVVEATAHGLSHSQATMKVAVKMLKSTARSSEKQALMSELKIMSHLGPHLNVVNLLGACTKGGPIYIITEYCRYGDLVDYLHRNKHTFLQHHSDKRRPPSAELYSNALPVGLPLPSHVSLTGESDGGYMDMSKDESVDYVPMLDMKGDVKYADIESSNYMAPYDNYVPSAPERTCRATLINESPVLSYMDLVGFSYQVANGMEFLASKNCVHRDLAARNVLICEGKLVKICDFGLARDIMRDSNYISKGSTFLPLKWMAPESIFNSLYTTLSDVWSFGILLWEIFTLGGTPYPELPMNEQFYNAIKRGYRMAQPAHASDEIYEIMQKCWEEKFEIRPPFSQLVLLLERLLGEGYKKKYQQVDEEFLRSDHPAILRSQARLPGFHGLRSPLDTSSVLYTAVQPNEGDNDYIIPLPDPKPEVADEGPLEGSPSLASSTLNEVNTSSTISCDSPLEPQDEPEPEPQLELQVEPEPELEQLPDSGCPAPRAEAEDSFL

[7] = target: broad panel of kinases (Homo sapiens, UniProt P0C1S8); conditions: WEE2; 1 μM
[8] = target: broad panel of kinases (Homo sapiens, UniProt P10721, A829P); conditions: KIT(A829P); 1 μM
Sequence of broad panel of kinases (Homo sapiens, UniProt P10721, A829P) (P10721 26-976 A829P limits assumed): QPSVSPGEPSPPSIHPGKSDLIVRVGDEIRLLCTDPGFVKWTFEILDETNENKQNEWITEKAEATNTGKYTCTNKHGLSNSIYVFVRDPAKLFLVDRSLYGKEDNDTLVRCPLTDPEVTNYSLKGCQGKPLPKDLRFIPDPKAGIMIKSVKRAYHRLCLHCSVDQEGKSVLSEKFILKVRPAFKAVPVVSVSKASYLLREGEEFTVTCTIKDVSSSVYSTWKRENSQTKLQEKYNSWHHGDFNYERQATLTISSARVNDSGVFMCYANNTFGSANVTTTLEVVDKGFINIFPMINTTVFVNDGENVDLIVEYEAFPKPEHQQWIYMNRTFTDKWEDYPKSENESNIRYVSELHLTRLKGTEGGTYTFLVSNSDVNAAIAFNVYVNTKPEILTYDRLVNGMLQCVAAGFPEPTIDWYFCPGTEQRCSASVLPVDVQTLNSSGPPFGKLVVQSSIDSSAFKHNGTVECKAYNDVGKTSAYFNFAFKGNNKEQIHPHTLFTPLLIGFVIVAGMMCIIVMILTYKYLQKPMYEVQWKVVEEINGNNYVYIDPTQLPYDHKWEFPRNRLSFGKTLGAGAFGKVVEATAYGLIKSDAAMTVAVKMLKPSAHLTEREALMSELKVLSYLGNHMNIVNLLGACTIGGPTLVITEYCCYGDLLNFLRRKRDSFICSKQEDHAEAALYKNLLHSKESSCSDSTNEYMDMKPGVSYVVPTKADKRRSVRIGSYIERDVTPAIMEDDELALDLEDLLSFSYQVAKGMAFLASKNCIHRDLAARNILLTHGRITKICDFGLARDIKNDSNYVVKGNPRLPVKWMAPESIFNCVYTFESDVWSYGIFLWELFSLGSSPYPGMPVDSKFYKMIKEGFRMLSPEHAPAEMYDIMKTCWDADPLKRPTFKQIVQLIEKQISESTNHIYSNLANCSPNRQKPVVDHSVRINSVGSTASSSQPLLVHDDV

[9] = target: broad panel of kinases (Homo sapiens, UniProt P10721, D816V); conditions: KIT(D816V); 1 μM
Sequence of broad panel of kinases (Homo sapiens, UniProt P10721, D816V) (P10721 26-976 D816V limits assumed): as the sequence (P10721 26-976 A829P limits assumed) above, with D791V, P804A counted along it

[10] = target: broad panel of kinases (Homo sapiens, UniProt P27361); conditions: ERK1; 1 μM
Sequence of broad panel of kinases (Homo sapiens, UniProt P27361) (P27361 2-379 limits assumed): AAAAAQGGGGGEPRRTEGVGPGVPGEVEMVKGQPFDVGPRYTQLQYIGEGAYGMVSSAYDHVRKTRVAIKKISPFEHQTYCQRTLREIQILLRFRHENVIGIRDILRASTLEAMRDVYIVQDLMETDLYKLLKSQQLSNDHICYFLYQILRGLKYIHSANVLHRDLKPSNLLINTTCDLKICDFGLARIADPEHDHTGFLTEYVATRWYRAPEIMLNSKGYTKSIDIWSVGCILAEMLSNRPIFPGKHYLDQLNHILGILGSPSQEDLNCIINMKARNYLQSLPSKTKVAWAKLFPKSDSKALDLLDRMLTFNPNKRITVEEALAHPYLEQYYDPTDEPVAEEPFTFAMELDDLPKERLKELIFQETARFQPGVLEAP

[11] = target: broad panel of kinases (Homo sapiens, UniProt P29320); conditions: EPHA3; 1 μM
[12] = target: broad panel of kinases (Homo sapiens, UniProt P42679); conditions: CTK; 1 μM
[13] = target: broad panel of kinases (Homo sapiens, UniProt P48730); conditions: CSNK1D; 1 μM
[14] = target: broad panel of kinases (Homo sapiens, UniProt P49759); conditions: CLK1; 1 μM
[15] = target: broad panel of kinases (Homo sapiens, UniProt P50750); conditions: CDK9; 1 μM
[16] = target: broad panel of kinases (Homo sapiens, UniProt P51451); conditions: BLK; 1 μM
[17] = target: broad panel of kinases (Homo sapiens, UniProt P78362); conditions: SRPK2; 1 μM
[18] = target: broad panel of kinases (Homo sapiens, UniProt Q09013); conditions: DMPK; 1 μM
[19] = target: broad panel of kinases (Homo sapiens, UniProt Q13546); conditions: RIPK1; 1 μM
[20] = target: broad panel of kinases (Homo sapiens, UniProt Q15208); conditions: NDR1; 1 μM
[21] = target: broad panel of kinases (Homo sapiens, UniProt Q6ZWH5); conditions: NEK10; 1 μM
[22] = target: broad panel of kinases (Homo sapiens, UniProt Q7L7X3); conditions: TAOK1; 1 μM
[23] = target: broad panel of kinases (Homo sapiens, UniProt Q8TBX8); conditions: PIP5K2C; 1 μM
Sequence of broad panel of kinases (Homo sapiens, UniProt Q8TBX8) (Q8TBX8 2-421 limits assumed): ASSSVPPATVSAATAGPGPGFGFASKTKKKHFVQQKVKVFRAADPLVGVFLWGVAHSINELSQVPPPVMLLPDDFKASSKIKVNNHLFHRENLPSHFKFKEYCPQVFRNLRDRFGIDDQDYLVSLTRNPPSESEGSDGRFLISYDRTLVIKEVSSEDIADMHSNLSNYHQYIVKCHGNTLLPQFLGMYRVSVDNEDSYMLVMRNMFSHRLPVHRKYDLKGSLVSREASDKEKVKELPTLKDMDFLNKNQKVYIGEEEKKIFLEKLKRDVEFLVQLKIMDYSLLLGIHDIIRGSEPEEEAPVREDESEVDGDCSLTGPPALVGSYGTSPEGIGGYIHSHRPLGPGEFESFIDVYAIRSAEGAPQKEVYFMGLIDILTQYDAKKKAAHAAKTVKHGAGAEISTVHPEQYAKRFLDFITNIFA

[24] = target: broad panel of kinases (Homo sapiens, UniProt Q8TF76); conditions: HASPIN; 1 μM
[25] = target: broad panel of kinases (Homo sapiens, UniProt Q8WU08); conditions: YANK1; 1 μM
[26] = target: broad panel of kinases (Homo sapiens, UniProt Q96GD4); conditions: AURKB; 1 μM
[27] = target: broad panel of kinases (Homo sapiens, UniProt Q96NX5); conditions: CAMK1G; 1 μM
[28] = target: broad panel of kinases (Homo sapiens, UniProt Q96SB4); conditions: SRPK1; 1 μM
[29] = target: broad panel of kinases (Homo sapiens, UniProt Q99683); conditions: ASK1; 1 μM
[30] = target: broad panel of kinases (Homo sapiens, UniProt Q9BRS2); conditions: RIOK1; 1 μM
[31] = target: broad panel of kinases (Homo sapiens, UniProt Q9BXA7); conditions: TSSK1B; 1 μM
[32] = target: broad panel of kinases (Homo sapiens, UniProt Q9BYP7); conditions: WNK3; 1 μM
[33] = target: broad panel of kinases (Homo sapiens, UniProt Q9NY57); conditions: YANK2; 1 μM
[34] = target: broad panel of kinases (Homo sapiens, UniProt Q9NYL2); conditions: ZAK; 1 μM
Sequence of broad panel of kinases (Homo sapiens, UniProt Q9NYL2) (Q9NYL2 2-800 limits assumed): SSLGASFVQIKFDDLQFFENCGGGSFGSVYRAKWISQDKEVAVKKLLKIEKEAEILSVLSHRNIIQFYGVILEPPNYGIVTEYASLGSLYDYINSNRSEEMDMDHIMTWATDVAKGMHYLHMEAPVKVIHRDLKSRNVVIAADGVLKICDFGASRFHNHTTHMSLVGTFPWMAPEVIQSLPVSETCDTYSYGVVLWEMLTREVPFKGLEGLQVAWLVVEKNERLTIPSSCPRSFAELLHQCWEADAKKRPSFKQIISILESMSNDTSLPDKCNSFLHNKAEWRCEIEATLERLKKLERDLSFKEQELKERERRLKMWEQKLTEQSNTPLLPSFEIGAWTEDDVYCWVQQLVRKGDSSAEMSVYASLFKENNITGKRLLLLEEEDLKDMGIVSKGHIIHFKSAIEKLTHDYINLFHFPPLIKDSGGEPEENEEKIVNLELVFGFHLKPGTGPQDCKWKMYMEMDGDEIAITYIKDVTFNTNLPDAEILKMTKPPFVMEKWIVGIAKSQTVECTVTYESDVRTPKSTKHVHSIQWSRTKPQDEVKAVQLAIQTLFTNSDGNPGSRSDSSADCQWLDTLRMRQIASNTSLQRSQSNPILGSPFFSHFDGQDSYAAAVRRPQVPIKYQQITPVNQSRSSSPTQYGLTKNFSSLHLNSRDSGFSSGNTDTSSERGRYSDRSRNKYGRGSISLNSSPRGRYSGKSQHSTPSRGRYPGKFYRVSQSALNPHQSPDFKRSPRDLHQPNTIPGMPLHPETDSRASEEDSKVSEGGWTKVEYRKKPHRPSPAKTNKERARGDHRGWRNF

[35] = target: broad panel of kinases (Homo sapiens, UniProt Q9P2K8, S808G); conditions: GCN2(Kin.Dom.2, S808G); 1 μM
[36] = target: broad panel of kinases (Homo sapiens, UniProt Q9Y463); conditions: DYRK1B; 1 μM

Sequence of broad panel of kinases (Homo sapiens, UniProt P08581, M1250T) (P08581 25-1390 M1250T limits assumed): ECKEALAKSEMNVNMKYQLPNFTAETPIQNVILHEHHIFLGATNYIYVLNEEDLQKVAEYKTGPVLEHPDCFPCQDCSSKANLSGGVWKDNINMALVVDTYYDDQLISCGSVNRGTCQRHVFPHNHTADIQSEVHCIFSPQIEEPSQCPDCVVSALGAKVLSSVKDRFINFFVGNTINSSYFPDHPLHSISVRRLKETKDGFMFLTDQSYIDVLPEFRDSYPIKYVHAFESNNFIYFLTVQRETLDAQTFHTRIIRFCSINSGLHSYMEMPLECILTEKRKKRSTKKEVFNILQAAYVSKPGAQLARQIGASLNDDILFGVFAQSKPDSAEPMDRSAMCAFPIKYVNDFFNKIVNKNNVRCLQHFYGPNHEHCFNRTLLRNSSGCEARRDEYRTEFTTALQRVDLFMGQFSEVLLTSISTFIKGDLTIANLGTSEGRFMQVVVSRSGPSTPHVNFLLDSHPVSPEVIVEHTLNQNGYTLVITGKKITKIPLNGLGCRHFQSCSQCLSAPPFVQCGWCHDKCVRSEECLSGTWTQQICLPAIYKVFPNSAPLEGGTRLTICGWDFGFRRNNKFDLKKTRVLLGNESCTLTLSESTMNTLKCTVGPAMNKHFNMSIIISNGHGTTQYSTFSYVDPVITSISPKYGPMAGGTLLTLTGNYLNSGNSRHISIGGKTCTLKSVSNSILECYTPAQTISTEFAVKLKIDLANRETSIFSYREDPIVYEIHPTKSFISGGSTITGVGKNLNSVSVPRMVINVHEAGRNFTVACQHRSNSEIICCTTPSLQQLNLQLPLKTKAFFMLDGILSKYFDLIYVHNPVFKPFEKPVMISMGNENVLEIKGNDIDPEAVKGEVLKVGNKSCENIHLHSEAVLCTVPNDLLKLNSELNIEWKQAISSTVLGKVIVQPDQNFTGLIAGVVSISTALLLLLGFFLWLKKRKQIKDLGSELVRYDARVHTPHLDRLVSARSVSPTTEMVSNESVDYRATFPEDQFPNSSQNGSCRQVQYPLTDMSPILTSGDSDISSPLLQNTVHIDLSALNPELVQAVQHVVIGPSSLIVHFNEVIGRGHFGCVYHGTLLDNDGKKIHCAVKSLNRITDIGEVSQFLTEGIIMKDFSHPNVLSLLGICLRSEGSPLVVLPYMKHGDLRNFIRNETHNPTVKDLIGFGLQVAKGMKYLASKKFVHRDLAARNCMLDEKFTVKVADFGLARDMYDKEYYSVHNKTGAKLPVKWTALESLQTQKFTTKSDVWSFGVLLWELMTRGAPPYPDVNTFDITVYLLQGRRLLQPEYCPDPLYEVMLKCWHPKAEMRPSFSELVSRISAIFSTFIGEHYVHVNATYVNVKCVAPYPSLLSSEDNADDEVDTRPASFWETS

Compound	percent of control binding remaining (lower = stronger binding) [1]	percent of control binding remaining (lower = stronger binding) [2]	percent of control binding remaining (lower = stronger binding) [4]	percent of control binding remaining (lower = stronger binding) [5]	percent of control binding remaining (lower = stronger binding) [7]	percent of control binding remaining (lower = stronger binding) [8]	percent of control binding remaining (lower = stronger binding) [9]	percent of control binding remaining (lower = stronger binding) [10]	percent of control binding remaining (lower = stronger binding) [11]	percent of control binding remaining (lower = stronger binding) [12]	percent of control binding remaining (lower = stronger binding) [13]	percent of control binding remaining (lower = stronger binding) [14]	percent of control binding remaining (lower = stronger binding) [15]	percent of control binding remaining (lower = stronger binding) [16]	percent of control binding remaining (lower = stronger binding) [17]	percent of control binding remaining (lower = stronger binding) [18]	percent of control binding remaining (lower = stronger binding) [19]	percent of control binding remaining (lower = stronger binding) [20]	percent of control binding remaining (lower = stronger binding) [21]	percent of control binding remaining (lower = stronger binding) [22]	other results
C=CC(=O)N1CC[C@H](Nc2nc(CN3CCOCC3)cc(Nc3ncc(C(=O)Nc4c(C)cccc4C)s3)n2)C1 [Example I-2]	73%	72%	100%	97%	100%	5.8%	1.7%	97%	47%	67%	100%	92%	90%	0%	92%	98%	100%	63%	93%	93%	percent of control binding remaining (lower = stronger binding) ([3]; ABL1(F317L)-nonphosphorylated): 0%; percent of control binding remaining (lower = stronger binding) ([3]; ABL1(F317L)-phosphorylated): 0.5%; percent of control binding remaining (lower = stronger binding) [6]: 0%; percent of control binding remaining (lower = stronger binding) [23]: 100%; percent of control binding remaining (lower = stronger binding) [24]: 100%; percent of control binding remaining (lower = stronger binding) [25]: 100%; percent of control binding remaining (lower = stronger binding) [26]: 96%; percent of control binding remaining (lower = stronger binding) [27]: 89%; percent of control binding remaining (lower = stronger binding) [28]: 91%; percent of control binding remaining (lower = stronger binding) [29]: 96%; percent of control binding remaining (lower = stronger binding) [30]: 90%; percent of control binding remaining (lower = stronger binding) [31]: 73%; percent of control binding remaining (lower = stronger binding) [32]: 100%; percent of control binding remaining (lower = stronger binding) [33]: 100%; percent of control binding remaining (lower = stronger binding) [34]: 87%; percent of control binding remaining (lower = stronger binding) [35]: 85%; percent of control binding remaining (lower = stronger binding) [36]: 94%
C=CC(=O)N1CC[C@H](Nc2nccc(Nc3ncc(C(=O)Nc4c(C)cccc4C)s3)n2)C1 [Example I-3]	80%	99%	100%	90%	97%	10%	14%	95%	49%	81%	99%	100%	75%	0%	64%	98%	100%	74%	90%	98%	% change compared to control ([3]; ABL1(F317L)-nonphosphorylated): 0.5%; % change compared to control ([3]; ABL1(F317L)-phosphorylated): 2%; % change compared to control [6]: 0%; percent of control binding remaining (lower = stronger binding) [23]: 100%; percent of control binding remaining (lower = stronger binding) [24]: 88%; percent of control binding remaining (lower = stronger binding) [25]: 84%; percent of control binding remaining (lower = stronger binding) [26]: 100%; percent of control binding remaining (lower = stronger binding) [27]: 97%; percent of control binding remaining (lower = stronger binding) [28]: 96%; percent of control binding remaining (lower = stronger binding) [29]: 91%; percent of control binding remaining (lower = stronger binding) [30]: 82%; percent of control binding remaining (lower = stronger binding) [31]: 100%; percent of control binding remaining (lower = stronger binding) [32]: 100%; percent of control binding remaining (lower = stronger binding) [33]: 96%; percent of control binding remaining (lower = stronger binding) [34]: 94%; percent of control binding remaining (lower = stronger binding) [35]: 100%; percent of control binding remaining (lower = stronger binding) [36]: 74%
